Source: patent publication US20220411372A1, “SMALL-MOLECULE INHIBITORS FOR THE B-CATENIN/B-CELL LYMPHOMA 9 PROTEIN-PROTEIN INTERACTION” (H. Lee Moffitt Cancer Center and Research Institute, Inc., priority 2019, published 2022)
Read-outs that look alike come from different tables or passages of the source.

Target: T1, β-catenin/BCL9 PPI (Homo sapiens, UniProt P35222)
T1 construct: Full-length β-catenin (residues 1-781) were cloned into a pET-28b vector; made in house; host or cells: E. coli BL21 DE3 (β-catenin); BCL9 peptide synthesized by InnoPep Inc
T1 sequence (P35222 1-781): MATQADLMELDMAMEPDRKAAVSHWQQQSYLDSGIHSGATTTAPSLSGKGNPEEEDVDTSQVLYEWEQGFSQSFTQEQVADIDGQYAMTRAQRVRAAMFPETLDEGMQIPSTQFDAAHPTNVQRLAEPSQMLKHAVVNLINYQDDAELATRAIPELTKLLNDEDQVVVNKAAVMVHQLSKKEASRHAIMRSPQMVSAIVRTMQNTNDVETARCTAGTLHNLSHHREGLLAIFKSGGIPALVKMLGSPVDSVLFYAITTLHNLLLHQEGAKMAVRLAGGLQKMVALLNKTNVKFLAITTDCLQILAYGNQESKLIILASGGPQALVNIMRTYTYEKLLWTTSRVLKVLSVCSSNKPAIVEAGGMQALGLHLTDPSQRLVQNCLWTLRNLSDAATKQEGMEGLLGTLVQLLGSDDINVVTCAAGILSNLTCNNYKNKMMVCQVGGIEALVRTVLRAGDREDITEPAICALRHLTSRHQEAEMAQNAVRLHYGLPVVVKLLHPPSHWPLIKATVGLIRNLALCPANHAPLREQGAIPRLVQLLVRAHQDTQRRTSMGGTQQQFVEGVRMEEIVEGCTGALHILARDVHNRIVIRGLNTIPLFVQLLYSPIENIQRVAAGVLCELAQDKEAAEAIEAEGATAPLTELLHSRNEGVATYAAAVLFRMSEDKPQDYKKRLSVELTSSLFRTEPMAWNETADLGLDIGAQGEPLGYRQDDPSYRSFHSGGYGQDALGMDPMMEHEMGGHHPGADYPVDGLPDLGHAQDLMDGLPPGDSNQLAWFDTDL
Assay: AlphaScreen competitive inhibition assay of the β-catenin/BCL9 PPI
Type: binding
Conditions: read-out: Ki
Method in brief: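 5 nM biotinylated BCL9 and 40 nM His6-β-catenin preincubated 30 min at 4° C in pH 7.4 Hepes buffer with 0.01% Triton X-100, 0.1% BSA, 1% DMSO; inhibitor added 1 h at 4° C, then 10 μg/mL donor/acceptor beads 1 h.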

| Ki (Table 8, inhibitors 82-92) [µM] | Ki (Table 12, inhibitors 109-112) [µM] | Compound | other results |
| --- | --- | --- | --- |
|  | ≤ 30 | CCOc1cc(-c2cn[nH]c2)ccc1CN(C(=O)[C@@H]1CCCN(c2cccc(OC(C)(C)C(=O)N3CCNCC3)c2)C1)C1CC1 [Compound 109, (R)-4-(2-(3-(3-(Cyclopropyl(2-ethoxy-4-(1H-pyrazol-4-yl)benzyl)carbamoyl)piperidin-1-yl)phenoxy)-2-methylpropanoyl)piperazin-1-ium chloride] |  |
|  | ≤ 30 | CC(C)Oc1cc(-c2cn[nH]c2)ccc1CN(C(=O)[C@@H]1CCCN(c2cccc(OC(C)(C)C(=O)N3CCNCC3)c2)C1)C1CC1 [Compound 110, (R)-4-(2-(3-(3-(Cyclopropyl(2-isopropoxy-4-(1H-pyrazol-4-yl)benzyl)carbamoyl)piperidin-1-yl)phenoxy)-2-methylpropanoyl)piperazin-1-ium chloride] |  |
|  | ≤ 30 | CCCOc1cc(-c2cn[nH]c2)ccc1CN(C(=O)[C@@H]1CCCN(c2cccc(OC(C)(C)C(=O)N3CCNCC3)c2)C1)C1CC1 [Compound 111, (R)-4-(2-(3-(3-(Cyclopropyl(2-propoxy-4-(1H-pyrazol-4-yl)benzyl)carbamoyl)piperidin-1-yl)phenoxy)-2-methylpropanoyl)piperazin-1-ium chloride] |  |
|  | ≤ 30 | CC(C)(Oc1cncc(N2CCC[C@@H](C(=O)N(Cc3ccc(-c4cn[nH]c4)cc3)C3CC3)C2)c1)C(=O)N1CCNCC1 [Compound 112, (R)-4-(2-((5-(3-((4-(1H-pyrazol-4-yl)benzyl)(cyclopropyl)carbamoyl)piperidin-1-yl)pyridin-3-yl)oxy)-2-methylpropanoyl)piperazin-1-ium chloride] |  |

The remaining lines, values behind:

| Compound | Ki (Table 8, inhibitors 82-92) [µM] | Ki (Table 12, inhibitors 109-112) [µM] | other results |
| --- | --- | --- | --- |
| CC(C)c1ccc2c(c1)CCN(C(=O)[C@@H]1CCCN(c3cccc(OC(C)(C)C(=O)N4CCNCC4)c3)C1)C2 [Compound 90, (R)-4-(2-(3-(3-(6-isopropyl-1,2,3,4-tetrahydroisoquinoline-2-carbonyl)piperidin-1-yl)phenoxy)-2-methylpropanoyl)piperazin-1-ium chlorine] | < 30 |  |  |
| CC(C)(Oc1cccc(N2CCC[C@@H](C(=O)N3CCc4cc(-c5ccccc5)ccc4C3)C2)c1)C(=O)N1CCNCC1 [Compound 91, (R)-4-(2-methyl-2-(3-(3-(6-phenyl-1,2,3,4-tetrahydroisoquinoline-2-carbonyl)piperidin-1-yl)phenoxy)propanoyl)piperazin-1-ium chlorine] | < 5 |  |  |
| CC(C)(Oc1cccc(N2CCC[C@@H](C(=O)N3CCc4cc(-c5cn[nH]c5)ccc4C3)C2)c1)C(=O)N1CCNCC1 [Compound 92, (R)-4-(2-(3-(3-(6-(1H-pyrazol-4-yl)-1,2,3,4-tetrahydroisoquinoline-2-carbonyl)piperidin-1-yl)phenoxy)-2-methylpropanoyl)piperazin-1-ium chloride] | < 90 |  |  |
| (R)-2-(3-(3-(cyclopropyl(4-isopropylbenzyl)carbamoyl)piperidin-1-yl)phenoxy)-2-methylpropanoic acid [Compound 98] |  |  | Ki (Table 9, inhibitors 93-98, racemic): ≤ 90 µM |
